Assay in all cases: biochemical
What all share (assay type): biochemical

Test [1] addresses T1, 382 unique human kinases (Homo sapiens, UniProt Q13043).
T1 construct: purchased Reaction Biology (HotSpot contract assay)
T1 sequence (Q13043 1-487): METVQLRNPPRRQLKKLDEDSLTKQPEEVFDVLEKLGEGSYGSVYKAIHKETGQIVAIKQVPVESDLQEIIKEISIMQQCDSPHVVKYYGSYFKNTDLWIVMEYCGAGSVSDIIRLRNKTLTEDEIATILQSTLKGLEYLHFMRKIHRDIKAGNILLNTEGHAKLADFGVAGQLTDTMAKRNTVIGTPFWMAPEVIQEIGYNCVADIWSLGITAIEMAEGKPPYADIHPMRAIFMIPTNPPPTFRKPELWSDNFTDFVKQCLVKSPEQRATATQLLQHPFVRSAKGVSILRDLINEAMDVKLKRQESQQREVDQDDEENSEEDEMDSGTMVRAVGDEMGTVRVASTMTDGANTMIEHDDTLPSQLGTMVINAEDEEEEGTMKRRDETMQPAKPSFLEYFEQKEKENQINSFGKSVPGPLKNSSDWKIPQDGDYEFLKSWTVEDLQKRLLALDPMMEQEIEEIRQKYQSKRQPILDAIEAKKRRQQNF
Particulars: MST1/STK4, 10 uM; for remaining activity at 10 µM: read-out: % Enzyme Activity (relative to DMSO controls).

Test [2] has as its target T2, 382 unique human kinases (Homo sapiens, UniProt Q9Y243, G171R).
T2 construct: purchased Reaction Biology (HotSpot contract assay)
Conditions: AKT3 (G171R), 10 uM; for remaining activity at 10 µM: read-out: % Enzyme Activity (relative to DMSO controls).

The target of test [3] is T3, 382 unique human kinases (Homo sapiens, UniProt Q6P3R8).
T3 construct: purchased Reaction Biology (HotSpot contract assay)
T3 sequence (Q6P3R8 1-708): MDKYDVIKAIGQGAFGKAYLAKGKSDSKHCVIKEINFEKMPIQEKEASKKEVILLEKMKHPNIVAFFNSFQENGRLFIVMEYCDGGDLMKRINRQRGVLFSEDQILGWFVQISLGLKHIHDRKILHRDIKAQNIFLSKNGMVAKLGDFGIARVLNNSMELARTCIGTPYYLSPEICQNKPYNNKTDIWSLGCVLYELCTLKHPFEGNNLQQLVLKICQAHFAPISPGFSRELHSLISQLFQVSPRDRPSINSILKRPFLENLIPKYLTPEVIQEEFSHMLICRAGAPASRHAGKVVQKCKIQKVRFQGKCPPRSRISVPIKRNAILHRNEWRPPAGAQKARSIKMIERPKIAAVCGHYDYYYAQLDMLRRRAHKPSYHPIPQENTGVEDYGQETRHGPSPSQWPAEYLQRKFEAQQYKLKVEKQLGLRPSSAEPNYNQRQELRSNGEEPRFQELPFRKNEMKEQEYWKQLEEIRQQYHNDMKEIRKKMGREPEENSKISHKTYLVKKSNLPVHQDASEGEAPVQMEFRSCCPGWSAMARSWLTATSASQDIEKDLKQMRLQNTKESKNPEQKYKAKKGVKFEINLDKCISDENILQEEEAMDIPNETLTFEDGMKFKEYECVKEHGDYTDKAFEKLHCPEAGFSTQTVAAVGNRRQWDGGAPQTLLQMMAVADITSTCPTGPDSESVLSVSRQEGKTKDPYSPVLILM
Particulars: NEK5, 10 uM; for remaining activity at 10 µM: read-out: % Enzyme Activity (relative to DMSO controls).

The target in test [4] is T4, 382 unique human kinases (Homo sapiens, UniProt Q9UKE5).
T4 construct: purchased Reaction Biology (HotSpot contract assay)
Conditions: TNIK, 10 uM; for remaining activity at 10 µM: read-out: % Enzyme Activity (relative to DMSO controls).

Test [5] deals with T5, 382 unique human kinases (Homo sapiens, UniProt P21802, K526E).
T5 construct: purchased Reaction Biology (HotSpot contract assay)
Particulars: for remaining activity at 10 µM: read-out: % Enzyme Activity (relative to DMSO controls).

The target in test [6] is T6, 382 unique human kinases (Homo sapiens, UniProt P10721, V654A).
T6 construct: purchased Reaction Biology (HotSpot contract assay)
Conditions: kinase c-Kit (V654A), compound 10 uM; for remaining activity at 10 µM: read-out: % Enzyme Activity (relative to DMSO controls).

Test [7] addresses T7, 382 unique human kinases (Homo sapiens, UniProt Q9H2G2).
T7 construct: purchased Reaction Biology (HotSpot contract assay)
Particulars: SLK/STK2, 10 uM; for remaining activity at 10 µM: read-out: % Enzyme Activity (relative to DMSO controls).

In test [8] the target is T8, 382 unique human kinases (Homo sapiens, UniProt P21802, R612T).
T8 construct: purchased Reaction Biology (HotSpot contract assay)
Particulars: FGFR2 (R612T), 10 uM; for remaining activity at 10 µM: read-out: % Enzyme Activity (relative to DMSO controls).

Test [9] has as its target T9, 382 unique human kinases (Homo sapiens, UniProt P08581, F1200I).
T9 construct: purchased Reaction Biology (HotSpot contract assay)
Conditions: kinase c-MET (F1200I), compound 10 uM; for remaining activity at 10 µM: read-out: % Enzyme Activity (relative to DMSO controls).

The target in test [10] is T10, 382 unique human kinases (Homo sapiens, UniProt Q02763).
T10 construct: purchased Reaction Biology (HotSpot contract assay)
Conditions: for remaining activity at 10 µM: read-out: % Enzyme Activity (relative to DMSO controls).

The target in test [11] is T11, 382 unique human kinases (Homo sapiens, UniProt P08581, Y1230A).
T11 construct: purchased Reaction Biology (HotSpot contract assay)
Conditions: c-MET (Y1230A), 10 uM; for remaining activity at 10 µM: read-out: % Enzyme Activity (relative to DMSO controls).

The target of test [12] is T12, 382 unique human kinases (Homo sapiens, UniProt Q96BR1).
T12 construct: purchased Reaction Biology (HotSpot contract assay)
T12 sequence (Q96BR1 1-496): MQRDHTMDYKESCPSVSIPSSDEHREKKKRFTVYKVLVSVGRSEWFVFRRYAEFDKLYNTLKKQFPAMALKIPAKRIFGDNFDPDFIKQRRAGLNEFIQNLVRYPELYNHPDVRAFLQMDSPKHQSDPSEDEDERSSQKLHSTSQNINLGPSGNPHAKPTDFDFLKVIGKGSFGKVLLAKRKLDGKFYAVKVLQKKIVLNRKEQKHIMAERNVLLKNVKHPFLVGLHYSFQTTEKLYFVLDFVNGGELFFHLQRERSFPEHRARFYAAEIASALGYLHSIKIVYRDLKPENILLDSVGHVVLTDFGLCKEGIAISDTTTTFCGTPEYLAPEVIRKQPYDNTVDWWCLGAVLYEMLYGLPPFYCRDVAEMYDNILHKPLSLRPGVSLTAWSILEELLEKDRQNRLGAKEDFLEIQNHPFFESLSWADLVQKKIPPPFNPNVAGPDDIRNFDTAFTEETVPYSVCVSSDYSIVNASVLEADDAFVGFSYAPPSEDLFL
Conditions: SGK3/SGKL, 10 uM; for remaining activity at 10 µM: read-out: % Enzyme Activity (relative to DMSO controls).

For test [13], the target named is T13, 382 unique human kinases (Homo sapiens, UniProt Q9H0K1).
T13 construct: purchased Reaction Biology (HotSpot contract assay)
Particulars: SIK2, [ATP] 30 µM.

The target of test [14] is T14, 382 unique human kinases (Homo sapiens, UniProt P00533, DEL746-750/T790M).
T14 construct: purchased Reaction Biology (HotSpot contract assay)
Conditions: EGFR (d746-750/T790M), 10 uM; for remaining activity at 10 µM: read-out: % Enzyme Activity (relative to DMSO controls).

Where [15] appears, read: TIE2/TEK, compound at 10 uM, duplicate values.
The mark [16] stands for this setting: compound 10 uM, read-out: % Enzyme Activity (relative to DMSO controls).

4 molecules from article PMC8550792, “Evolution of kinase polypharmacology across HSP90 drug discovery” (Cell Chemical Biology, 2021) can be followed below.

Read-outs that look alike come from different tables or passages of the source.

T13 sequence (Q9H0K1 whole entry): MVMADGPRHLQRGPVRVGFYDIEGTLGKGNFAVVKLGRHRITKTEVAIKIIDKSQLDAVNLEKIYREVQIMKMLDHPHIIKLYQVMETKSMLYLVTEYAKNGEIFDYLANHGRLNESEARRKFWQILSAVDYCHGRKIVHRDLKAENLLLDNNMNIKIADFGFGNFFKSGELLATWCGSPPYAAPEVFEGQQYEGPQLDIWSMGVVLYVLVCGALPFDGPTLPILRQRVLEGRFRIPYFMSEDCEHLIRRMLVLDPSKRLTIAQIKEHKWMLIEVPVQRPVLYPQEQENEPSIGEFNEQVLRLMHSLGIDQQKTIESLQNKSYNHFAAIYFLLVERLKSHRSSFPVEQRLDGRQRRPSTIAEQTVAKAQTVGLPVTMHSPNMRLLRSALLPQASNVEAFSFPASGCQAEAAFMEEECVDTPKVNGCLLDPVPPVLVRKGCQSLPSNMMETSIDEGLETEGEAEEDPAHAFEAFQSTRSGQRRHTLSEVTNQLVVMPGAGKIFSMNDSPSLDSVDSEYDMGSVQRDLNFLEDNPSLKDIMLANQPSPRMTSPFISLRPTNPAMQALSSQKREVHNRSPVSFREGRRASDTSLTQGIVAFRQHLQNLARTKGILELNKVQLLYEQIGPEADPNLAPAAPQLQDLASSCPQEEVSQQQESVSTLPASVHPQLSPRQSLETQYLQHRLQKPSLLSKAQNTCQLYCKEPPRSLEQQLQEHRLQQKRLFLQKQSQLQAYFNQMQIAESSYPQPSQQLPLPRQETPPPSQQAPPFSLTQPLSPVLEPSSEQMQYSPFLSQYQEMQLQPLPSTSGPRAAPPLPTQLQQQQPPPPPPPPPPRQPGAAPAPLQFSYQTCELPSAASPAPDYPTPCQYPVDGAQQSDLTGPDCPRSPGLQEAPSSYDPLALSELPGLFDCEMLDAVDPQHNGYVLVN
T8 sequence (P21802 22-821 R612T): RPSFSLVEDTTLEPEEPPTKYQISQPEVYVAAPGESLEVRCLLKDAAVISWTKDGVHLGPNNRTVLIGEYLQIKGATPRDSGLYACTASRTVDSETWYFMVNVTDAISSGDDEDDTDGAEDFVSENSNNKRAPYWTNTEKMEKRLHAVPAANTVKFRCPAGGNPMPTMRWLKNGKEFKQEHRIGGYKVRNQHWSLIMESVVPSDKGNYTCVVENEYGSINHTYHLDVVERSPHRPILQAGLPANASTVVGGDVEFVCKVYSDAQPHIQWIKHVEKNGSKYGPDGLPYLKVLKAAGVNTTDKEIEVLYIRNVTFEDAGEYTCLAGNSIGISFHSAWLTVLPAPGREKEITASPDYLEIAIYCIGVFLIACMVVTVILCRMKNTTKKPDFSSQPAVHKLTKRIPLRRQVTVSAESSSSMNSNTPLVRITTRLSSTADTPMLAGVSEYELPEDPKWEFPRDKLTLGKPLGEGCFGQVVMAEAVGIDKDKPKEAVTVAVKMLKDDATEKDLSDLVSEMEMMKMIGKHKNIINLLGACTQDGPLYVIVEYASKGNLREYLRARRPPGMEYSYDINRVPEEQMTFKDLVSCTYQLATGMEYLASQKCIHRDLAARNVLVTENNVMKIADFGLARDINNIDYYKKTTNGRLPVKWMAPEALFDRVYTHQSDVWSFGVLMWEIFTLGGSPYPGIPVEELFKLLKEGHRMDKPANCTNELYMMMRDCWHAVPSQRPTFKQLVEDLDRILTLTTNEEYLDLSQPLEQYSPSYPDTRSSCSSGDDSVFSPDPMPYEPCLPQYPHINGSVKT
T7 sequence (Q9H2G2 whole entry): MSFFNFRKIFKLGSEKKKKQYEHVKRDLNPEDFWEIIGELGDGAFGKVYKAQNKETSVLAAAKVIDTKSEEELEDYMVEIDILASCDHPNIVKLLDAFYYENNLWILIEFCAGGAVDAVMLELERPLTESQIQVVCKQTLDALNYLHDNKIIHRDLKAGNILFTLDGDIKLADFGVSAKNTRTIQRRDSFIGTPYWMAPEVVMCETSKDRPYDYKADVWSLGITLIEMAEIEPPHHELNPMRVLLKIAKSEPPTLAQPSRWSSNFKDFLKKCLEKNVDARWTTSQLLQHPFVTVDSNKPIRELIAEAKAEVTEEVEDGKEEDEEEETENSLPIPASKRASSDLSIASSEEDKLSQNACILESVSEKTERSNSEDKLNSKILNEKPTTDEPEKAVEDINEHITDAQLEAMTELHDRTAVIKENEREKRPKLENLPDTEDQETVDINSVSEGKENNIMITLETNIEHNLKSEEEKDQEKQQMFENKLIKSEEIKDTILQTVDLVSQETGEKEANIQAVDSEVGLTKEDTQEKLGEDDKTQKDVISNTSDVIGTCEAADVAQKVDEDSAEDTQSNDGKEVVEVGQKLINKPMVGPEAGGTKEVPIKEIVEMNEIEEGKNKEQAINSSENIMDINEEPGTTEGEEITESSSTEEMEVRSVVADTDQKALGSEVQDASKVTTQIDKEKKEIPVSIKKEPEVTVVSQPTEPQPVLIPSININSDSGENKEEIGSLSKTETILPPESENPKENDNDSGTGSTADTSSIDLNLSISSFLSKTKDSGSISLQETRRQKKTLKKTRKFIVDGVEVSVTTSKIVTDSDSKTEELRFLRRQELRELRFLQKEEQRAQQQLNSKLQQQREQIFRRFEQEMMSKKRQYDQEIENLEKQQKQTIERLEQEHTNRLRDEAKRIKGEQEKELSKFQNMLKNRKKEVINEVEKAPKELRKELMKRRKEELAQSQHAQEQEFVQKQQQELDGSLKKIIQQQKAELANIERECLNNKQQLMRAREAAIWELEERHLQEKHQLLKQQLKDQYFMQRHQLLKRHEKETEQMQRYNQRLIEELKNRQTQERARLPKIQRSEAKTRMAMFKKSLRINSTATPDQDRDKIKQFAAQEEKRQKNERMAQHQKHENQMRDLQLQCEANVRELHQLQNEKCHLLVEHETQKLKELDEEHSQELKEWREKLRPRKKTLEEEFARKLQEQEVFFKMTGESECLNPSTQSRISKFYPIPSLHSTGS
T4 sequence (Q9UKE5 whole entry): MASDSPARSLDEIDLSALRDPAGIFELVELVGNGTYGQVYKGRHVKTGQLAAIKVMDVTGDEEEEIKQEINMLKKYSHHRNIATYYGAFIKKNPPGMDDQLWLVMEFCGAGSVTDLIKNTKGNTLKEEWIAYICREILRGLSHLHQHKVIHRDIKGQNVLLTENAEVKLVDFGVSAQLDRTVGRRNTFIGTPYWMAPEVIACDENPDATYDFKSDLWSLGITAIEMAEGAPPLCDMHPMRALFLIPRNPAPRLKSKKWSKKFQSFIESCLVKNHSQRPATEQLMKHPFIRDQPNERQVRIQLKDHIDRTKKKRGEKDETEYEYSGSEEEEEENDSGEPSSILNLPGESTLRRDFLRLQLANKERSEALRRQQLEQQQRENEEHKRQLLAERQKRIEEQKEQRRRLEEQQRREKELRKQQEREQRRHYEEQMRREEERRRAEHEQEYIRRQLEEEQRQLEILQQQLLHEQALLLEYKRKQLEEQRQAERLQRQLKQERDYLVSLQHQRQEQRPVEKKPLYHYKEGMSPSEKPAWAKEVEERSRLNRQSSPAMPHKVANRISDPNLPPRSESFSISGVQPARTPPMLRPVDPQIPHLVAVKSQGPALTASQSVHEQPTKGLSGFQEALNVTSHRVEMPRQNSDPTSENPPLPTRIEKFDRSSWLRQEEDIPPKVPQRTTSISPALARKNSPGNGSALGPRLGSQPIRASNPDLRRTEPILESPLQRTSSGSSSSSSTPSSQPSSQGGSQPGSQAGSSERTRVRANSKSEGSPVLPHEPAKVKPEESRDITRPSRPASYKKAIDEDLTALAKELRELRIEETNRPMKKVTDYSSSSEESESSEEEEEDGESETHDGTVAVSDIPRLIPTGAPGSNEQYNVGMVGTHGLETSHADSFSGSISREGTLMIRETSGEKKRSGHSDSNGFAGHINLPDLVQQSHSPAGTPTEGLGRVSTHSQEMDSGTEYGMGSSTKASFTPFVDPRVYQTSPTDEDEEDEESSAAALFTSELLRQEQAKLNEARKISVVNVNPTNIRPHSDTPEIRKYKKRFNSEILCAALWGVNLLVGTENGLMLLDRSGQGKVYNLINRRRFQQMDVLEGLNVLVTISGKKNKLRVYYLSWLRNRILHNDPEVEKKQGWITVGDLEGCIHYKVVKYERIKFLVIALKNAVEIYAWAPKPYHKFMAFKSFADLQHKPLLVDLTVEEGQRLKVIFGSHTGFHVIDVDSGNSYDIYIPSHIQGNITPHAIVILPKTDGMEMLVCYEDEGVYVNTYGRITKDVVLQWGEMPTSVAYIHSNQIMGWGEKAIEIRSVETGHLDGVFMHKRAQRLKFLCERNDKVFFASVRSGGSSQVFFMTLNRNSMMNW
T5 sequence (P21802 22-821 K526E): as the sequence (P21802 22-821 R612T) above, with K505E, T591R counted along it
T2 sequence (Q9Y243 whole entry G171R): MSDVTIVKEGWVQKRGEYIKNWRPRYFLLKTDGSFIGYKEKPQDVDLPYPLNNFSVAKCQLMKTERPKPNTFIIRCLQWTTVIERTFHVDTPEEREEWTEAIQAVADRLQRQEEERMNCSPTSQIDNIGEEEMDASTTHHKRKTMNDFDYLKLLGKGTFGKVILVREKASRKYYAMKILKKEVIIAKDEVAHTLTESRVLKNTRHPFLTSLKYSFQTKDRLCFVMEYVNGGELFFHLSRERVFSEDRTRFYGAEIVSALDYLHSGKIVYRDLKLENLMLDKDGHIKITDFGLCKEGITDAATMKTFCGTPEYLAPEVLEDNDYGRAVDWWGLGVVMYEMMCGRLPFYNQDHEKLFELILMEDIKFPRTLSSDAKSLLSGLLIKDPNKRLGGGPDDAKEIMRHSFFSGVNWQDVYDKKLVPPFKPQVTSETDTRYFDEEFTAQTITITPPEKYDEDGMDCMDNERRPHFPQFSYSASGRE

For the molecule `CC(C)c1cc(-c2n[nH]c(=O)n2-c2ccc3c(ccn3C)c2)c(O)cc1O` [Ganetespib (STA9090)], the remaining activity at 10 µM came out at 73.7% in test [1]; 67.1% in test [2]; 105% in test [3]; 62.6% in test [4]; 68.8% in test [5]; 81.4% in [6]. Moreover, the remaining activity at 10 µM was determined as 79.5% in [7]; 68.6% in test [8]; 86.5% in [9]; 71% in test [10] (TIE2 (A1124V), 10 uM); 101% in test [10] (setting [15]).
Turning to `CC(C)c1cc(-c2n[nH]c(=O)n2-c2ccc3c(ccn3C)c2)c(O)cc1O` [Ganetespib], the remaining activity at 10 µM in [11] was determined as 117%; in test [12] it was 101%; in [13] (setting [16]), 4.64%; in test [14], 118%. The remaining activity at 1 µM in [13] (compound 1 uM, read-out: % Enzyme Activity (relative to DMSO controls)) stood at 70.2%.
Consider `CCNC(=O)c1noc(-c2cc(C(C)C)c(O)cc2O)c1-c1ccc(CN2CCOCC2)cc1` [Luminespib (AUY-922)], for which the “% Enzyme Activity (relative to DMSO controls)” value in [1] turned out to be 101.81%; in test [2] it was 93.37%; in test [3] it was 66.42%; in test [4] it was 95.71%; in [5], 99.92%; in test [6], 85.21%. Also, the “% Enzyme Activity (relative to DMSO controls)” value in test [7] amounted to 89.63%; in test [8], 112.07%; in [9], 100.14%; in test [10] (TIE2 (A1124V), 10 uM), 95.16%; in test [10] (setting [15]) it was 106.94%. The remaining activity at 10 µM in [1] turned out to be 103%; in test [2] it was 98.6%; in test [3] it was 70.4%; in test [4], 96.6%; in [5], 102%; in test [6], 85.8%. Further, the remaining activity at 10 µM in test [7] was 90.2%; in test [8], 114%; in [9], 100%; in test [10] (TIE2 (A1124V), 10 uM) it was 96.5%; in [10] (setting [15]), 108%.
`CCNC(=O)c1noc(-c2cc(C(C)C)c(O)cc2O)c1-c1ccc(CN2CCOCC2)cc1` [Luminespib]: the “% Enzyme Activity (relative to DMSO controls)” value in test [11] is recorded as 98.90%; in [12], 105.88%; in [13] (compound 10 uM), 80.93%; in test [14], 99.12%. Moreover, the remaining activity at 10 µM was found to be 101% in [11], 106% in test [12], 81.2% in test [13] (setting [16]) and 100% in [14].
